The values that follow come from patent publication US20070134353A1, “PHYTOESTROGENIC COMPOSITION COMPRISING AN EXTRACT OF CHINESE LICORICE ROOT, ISOLIQUIRITIN OR LIQUIRITIN” (priority 2004, published 2007).

Entries after “also recorded” stand apart in the source; their conditions may differ.

One experiment deals with T1, androgen receptor (hAR) (Homo sapiens, UniProt P10275).
T1 construct: expressed in transfected cells; host or cells: recombinant Saccharomyces cerevisiae (from Dr. Donald P. McDonnell, Duke University)
T1 sequence (P10275 1-920): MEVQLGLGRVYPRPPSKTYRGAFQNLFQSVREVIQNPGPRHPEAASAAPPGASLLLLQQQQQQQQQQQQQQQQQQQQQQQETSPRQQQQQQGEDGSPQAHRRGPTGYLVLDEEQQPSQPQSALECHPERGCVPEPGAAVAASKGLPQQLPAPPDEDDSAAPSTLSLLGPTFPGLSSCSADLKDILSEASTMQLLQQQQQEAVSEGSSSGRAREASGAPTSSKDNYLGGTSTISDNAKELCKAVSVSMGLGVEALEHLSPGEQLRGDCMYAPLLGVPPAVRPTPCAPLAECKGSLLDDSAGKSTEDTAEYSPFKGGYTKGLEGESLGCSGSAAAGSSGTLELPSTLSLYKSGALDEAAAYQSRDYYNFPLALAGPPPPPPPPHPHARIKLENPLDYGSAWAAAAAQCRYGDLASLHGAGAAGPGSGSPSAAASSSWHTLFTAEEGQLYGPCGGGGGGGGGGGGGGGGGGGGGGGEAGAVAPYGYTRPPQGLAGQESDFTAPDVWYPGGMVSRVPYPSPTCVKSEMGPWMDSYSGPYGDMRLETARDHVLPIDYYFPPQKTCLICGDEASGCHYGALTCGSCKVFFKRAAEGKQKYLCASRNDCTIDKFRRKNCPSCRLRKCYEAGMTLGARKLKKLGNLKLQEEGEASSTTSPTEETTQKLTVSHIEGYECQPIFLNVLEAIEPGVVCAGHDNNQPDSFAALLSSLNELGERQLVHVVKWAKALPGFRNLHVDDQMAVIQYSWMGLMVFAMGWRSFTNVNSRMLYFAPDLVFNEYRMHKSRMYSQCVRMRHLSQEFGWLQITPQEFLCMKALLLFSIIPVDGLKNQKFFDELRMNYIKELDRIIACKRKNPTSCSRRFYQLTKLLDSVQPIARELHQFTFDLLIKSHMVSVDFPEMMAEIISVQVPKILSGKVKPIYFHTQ
Put plainly: Yeast assay, yeast androgen response (YAR), β-gal reporter. Type of experiment: cell-based. Particulars: summary statement, no concentration given.

Experiment [1] deals with MCF-7 breast cancer cells. Put plainly: Inhibitory effect on MCF-7 cell line proliferation (DNA content, OD 260 nm). Type of experiment: cell-based. Particulars: for inhibition of proliferation of MCF-7 breast cancer cell line: 100 μg/ml; for inhibition of proliferation of cancer cells including breast cancer cells: summary statement, no concentration given. On the procedure:
(§1) 5×10^4 cells/ml of MCF-7 cells (ATCC HTB-22) were placed in a 6-well culture plate and allowed to be attached for 24 hours. Phenol red-free D-medium supplemented with 5% fetal bovine serum (FBS) and 3 Ml/l PSN antibiotic mixture (Gibco, USA) was added thereto, followed by incubation in an incubator kept at 5% CO2, 95% air, 100% humidity, 37° C. for 24 hours. After incubation for 24 hours, the medium was removed and the cultured cells were incubated in phenol red-free D-medium supplemented with 5% DCC-FBS (dextran-coated charcoal-stripped FBS; […] During the incubation, the test media were changed once. After 72 hours, the cells were treated with 1 Ml of 0.1 N NaOH (Sigma Co.) and collected to examine DNA content with a spectrophotometer at OD 260 nm.

For experiment [2], the system named is bisphenol-A (BPA) activity in MCF-7 cells. Put plainly: Inhibitory effect on bisphenol-A (BPA) activity in MCF-7 cells. Type of experiment: cell-based. Particulars: summary statement, no concentration given. The protocol:
as §1, with “nm. Additionally, in order to examine if the Chinese licorice root extract can suppress activity of bisphenol-A (BPA), which is an endocrine disruptor having tumor-inducing activity, in the foregoing experiment, BPA was used instead of the Chinese licorice root extract or the Chinese licorice root extract and BPA were used simultaneously. […]” for “nm.”

Experiment [3] concerns the target T2, human estrogen receptor (hER) (Homo sapiens, UniProt P03372).
T2 construct: expressed in transfected cells; host or cells: Saccharomyces cerevisiae ER+LYS 8127 (from Dr. Donald P. McDonnell, Duke University)
T2 sequence (P03372 1-595): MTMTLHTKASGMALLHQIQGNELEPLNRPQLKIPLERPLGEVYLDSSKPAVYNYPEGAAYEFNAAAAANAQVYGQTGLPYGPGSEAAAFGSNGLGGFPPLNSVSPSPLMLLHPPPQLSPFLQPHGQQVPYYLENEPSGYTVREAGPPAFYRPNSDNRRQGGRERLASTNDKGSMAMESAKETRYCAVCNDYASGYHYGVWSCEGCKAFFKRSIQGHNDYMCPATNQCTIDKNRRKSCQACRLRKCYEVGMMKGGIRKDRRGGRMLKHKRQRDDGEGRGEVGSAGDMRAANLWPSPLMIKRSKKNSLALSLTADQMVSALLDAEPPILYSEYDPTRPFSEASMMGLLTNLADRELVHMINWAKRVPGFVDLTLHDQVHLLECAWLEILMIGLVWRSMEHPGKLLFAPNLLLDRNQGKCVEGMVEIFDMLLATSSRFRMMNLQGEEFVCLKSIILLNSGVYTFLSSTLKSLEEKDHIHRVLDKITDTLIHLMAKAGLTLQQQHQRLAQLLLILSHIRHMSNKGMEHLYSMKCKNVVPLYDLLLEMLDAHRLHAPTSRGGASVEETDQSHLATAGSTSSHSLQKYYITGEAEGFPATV
The experiment is described as follows: Yeast assay, yeast estrogen response (YER), β-gal reporter. Type of experiment: cell-based. Particulars: for estrogenicity: summary statement, no concentration given. On the procedure:
Saccharomyces cerevisiae ER+[…], supplied by Dr. Donald P. […] The cultured yeasts were diluted in a medium to a proper concentration and 500 μM of CuSO4 (Sigma, USA) was added thereto. The diluted yeasts were then aliquoted into a 50 Ml tube at a proper level. […] Control group was treated with dimethyl sulfoxide (Sigma, USA). […] The experimental groups and control groups treated with the respective materials were then cultured for 18 hours in a shaking incubator (200 rpm). […] To each well, 100 μl of a Z buffer containing 2 mg/Ml o-nitrophenyl -β-D-galactopyranoside (Sigma, USA), 0.1% lauryl sulfate (Sigma, USA), 50 mM β-mercaptoethanol (BDH chemical LTD, England) and 200 U/Ml oxalyticase (Enzogenetics, USA) was added. After 20 minutes, the coloration was examined using a microplate reader at a wavelength of 420 nm. All the data were analyzed by ANOVA using the statistical program SAS and Dunnett's t-test was performed at significance level P<0.05.

In experiment [4] the test system is uterus and vagina of immature Sprague-Dawley rats. The experiment is described as follows: Immature uterotrophic assay. To be noted: BPA 40 mg/ml/100 g s.c. 3 days, compared to non-treated control group. Type of experiment: in vivo. The protocol: 40 immature Sprague-Dawley rats, aged 18 days, were kept in a breeding environment of a temperature of 22±3° C., a relative humidity of 50±10%, a ventilation frequency of 10 to 12 times/hr, light time of 12 hours, an illumination intensity of 150 to 200 lux while being supplied with AIN-76A diet (per 1 kg, thiamine HCI 0.6 g, riboflavin 0.6 g, pyridoxine HCI 0.7 g, […] 3.0 g, calcium pantothenate 1.6 g, folic acid 0.2 g, biotin 0.02 g, Vitamin B12 (0.1%) 1.0 g, Vitamin A palmitate (500,000 IU/g) 0.8 g, Vitamin D3 (400,000 IU/g) 0.25 g, Vitamin E acetate (500 IU/g) 10.0 g, menadion sodium bisulfite 0.08 g, fine powdery sucrose 981.15 g). Each rat was subcutaneously administered once daily with bisphenol A (40 mg/ml/100 g body weight) and the Chinese licorice root EtOH extract (10 mg or 50 mg/ml/100 g body weight) suspended in corn oil for 3 days. 24 hours after the last administration day, the animals were killed by cervical dislocation. […] In particular, the height of the luminal epithelium of the uterus lumen was measured and the luminal epithelium of the vagina was carefully observed. For statistical analysis of data with respect to body weight of test animals and the like which had been measured in the experiment, one-way ANOVA was performed to inspect significance between groups at p=0.05 level. […]

As for Liquiritin, on androgen receptor (hAR), the androgenicity entry is listed as “do not show androgenicity”. In addition, in experiment [1], the “inhibition of proliferation of MCF-7 breast cancer cell line” value is recorded as “inhibited proliferation” and the “inhibition of proliferation of cancer cells including breast cancer cells” value is recorded as “inhibit proliferation of cancer cells”. In addition, the “suppression of the activity of bisphenol-A” value in experiment [2] is “suppress the activity of bisphenol-A”. Further, the estrogenicity entry in experiment [3] is reported as “show estrogenicity”.

With `O=C(/C=C/c1ccc(O[C@@H]2O[C@H](CO)[C@@H](O)[C@H](O)[C@H]2O)cc1)c1ccc(O)cc1O` [isoliquiritin, Isoliquiritin], the androgenicity entry on androgen receptor (hAR) was “do not show androgenicity”. In addition, in experiment [1], the “inhibition of proliferation of MCF-7 breast cancer cell line” value was “inhibited proliferation; also recorded: no significant proliferation of breast cancer cells was observed” and the “inhibition of proliferation of cancer cells including breast cancer cells” value is given as “inhibit proliferation of cancer cells”. Also, the “inhibitory effect on proliferation of breast cancer cells (MCF-7)” value in experiment [1] (300 μg/ml, FIG. 5) is given as “excellent inhibitory effect”. Further, the “suppression of the activity of bisphenol-A” value in experiment [2] was “suppress the activity of bisphenol-A”. Moreover, the “estrogenicity (estrogen response, ER)” value in experiment [3] (10 μg/ml and 100 μg/ml, compared with positive control 10^−9 M estradiol, FIG. 2b) was “higher than that of the positive control estradiol”. In addition, in experiment [3], the estrogenicity result was “show estrogenicity”. Besides, the “concentration showing the highest estrogenicity” value in experiment [3] (tested at 10 μg/ml and 100 μg/ml, FIG. 2b) was determined as 10 µg/mL.

For the molecule `CC(C)(c1ccc(O)cc1)c1ccc(O)cc1` [BPA, bisphenol-A], the “thickness of uterine epithelial cells” value in experiment [4] (FIG. 14) was “increased”. Besides, the “thickness of vagina epithelial cells” value in experiment [4] (FIG. 15) is listed as “increased”. Also, the “effect on proliferation of MCF-7 cells” value in experiment [1] (16 μg/ml, pretest) was “showed the highest effect on proliferation”.
